# Results published in ChEMBL document CHEMBL1136617, “Cyclic amidines as benzamide bioisosteres: EPC synthesis and SAR studies leading to the selective dopamine D4 receptor agonist FAUC 312” (Bioorg Med Chem Lett, 2003).
# Assays:
# [1] = target: T1, D(3) dopamine receptor (Homo sapiens, UniProt P35462); assay: biochemical
# [2] = target: T2, D(4) dopamine receptor (Homo sapiens, UniProt P21917); assay: biochemical; format: cell-based, CHO
# T2 sequence (P21917 whole entry): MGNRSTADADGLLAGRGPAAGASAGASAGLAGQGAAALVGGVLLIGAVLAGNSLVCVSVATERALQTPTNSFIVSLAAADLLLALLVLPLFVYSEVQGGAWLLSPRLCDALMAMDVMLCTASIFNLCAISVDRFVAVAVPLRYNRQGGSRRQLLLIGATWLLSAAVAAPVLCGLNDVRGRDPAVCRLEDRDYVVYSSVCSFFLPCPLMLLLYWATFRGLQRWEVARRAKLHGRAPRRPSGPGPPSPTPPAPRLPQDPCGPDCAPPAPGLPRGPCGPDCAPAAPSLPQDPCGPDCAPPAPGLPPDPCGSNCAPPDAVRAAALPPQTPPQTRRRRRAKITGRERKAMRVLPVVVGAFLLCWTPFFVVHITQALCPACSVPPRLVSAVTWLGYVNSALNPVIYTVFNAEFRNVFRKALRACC
# Description: In vitro binding affinity to displace [3H]spiperone from the cloned human dopamine receptor D4 in CHO cells
# [3] = target: T3, D(2) dopamine receptor (Homo sapiens, UniProt P14416); assay: biochemical; format: cell-based, CHO
# Description: In vitro binding affinity to displace [3H]-spiperone from the cloned human dopamine receptor D2 short in CHO cells
# [4] = target: D(1A) dopamine receptor (Bos taurus, UniProt Q95136); assay: In vitro Binding affinity towards dopamine D1 receptor using bovine striatal membrane preparations and antagonist [3H]-SCH- 23390; parameters: species or system Striatum
# [5] = target: T3, D(2) dopamine receptor; assay: biochemical; format: cell-based, CHO; remark: listed apart in the source
# [6] = target: T4, D(4) dopamine receptor (Homo sapiens) (UniProt P21917); assay: In vitro functional assay measuring the [3H]thymidine uptake in growing CHO cells stably expressing the dopamine D4.2 receptor was performed; format: cell-based
# T4 sequence (whole entry): T2 sequence (P21917 whole entry)
# [7] = target: T1, D(3) dopamine receptor; assay: In vitro ability to displace [3H]spiperone from cloned human dopamine D3 receptor expressed in CHO cells; format: cell-based
# [8] = target: T2, D(4) dopamine receptor; assay: In vitro ability to displace [3H]spiperone from the cloned human dopamine D4 receptor expressed in CHO cells; format: cell-based
# [9] = target: T3, D(2) dopamine receptor; assay: In vitro ability to displace [3H]spiperone from the cloned human dopamine D2 short receptor expressed in CHO cells; format: cell-based
# [10] = target: T2, D(4) dopamine receptor; assay: Effective concentration for [3H]thymidine uptake in growing CHO cells stably expressing the dopamine D4.2 receptor; format: cell-based
# [11] = target: T3, D(2) dopamine receptor; assay: In vitro ability to displace [3H]spiperone from the cloned human dopamine D2 long receptor expressed in CHO cells; format: cell-based
# [12] = target: T2, D(4) dopamine receptor; assay: In vitro binding affinity to displace [3H]-spiperone from the cloned human dopamine receptor D4 in CHO cells; format: cell-based
# [13] = target: T1, D(3) dopamine receptor; assay: In vitro binding affinity to displace [3H]spiperone from the cloned human dopamine receptor D3 in CHO cells; format: cell-based
# [14] = target: T3, D(2) dopamine receptor; assay: In vitro binding affinity to displace [3H]spiperone from the cloned human dopamine receptor D2 long in CHO cells; format: cell-based
# [15] = target: T3, D(2) dopamine receptor; assay: In vitro binding affinity to displace [3H]spiperone from the cloned human dopamine receptor D2 short in CHO cells; format: cell-based
# T3 sequence (P14416 whole entry): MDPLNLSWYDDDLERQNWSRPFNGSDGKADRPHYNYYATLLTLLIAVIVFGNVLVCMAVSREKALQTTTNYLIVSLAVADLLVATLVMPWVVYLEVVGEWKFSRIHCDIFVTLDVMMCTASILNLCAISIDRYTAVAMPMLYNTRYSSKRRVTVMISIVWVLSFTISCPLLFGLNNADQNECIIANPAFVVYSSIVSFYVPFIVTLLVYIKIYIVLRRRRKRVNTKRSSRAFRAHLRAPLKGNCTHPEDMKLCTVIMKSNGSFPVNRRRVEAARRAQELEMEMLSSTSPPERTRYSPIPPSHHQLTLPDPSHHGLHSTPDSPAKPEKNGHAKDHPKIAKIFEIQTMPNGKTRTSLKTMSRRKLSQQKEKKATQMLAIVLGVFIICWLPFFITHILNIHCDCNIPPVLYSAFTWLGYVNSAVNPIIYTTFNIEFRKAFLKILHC
# T1 sequence (P35462 whole entry): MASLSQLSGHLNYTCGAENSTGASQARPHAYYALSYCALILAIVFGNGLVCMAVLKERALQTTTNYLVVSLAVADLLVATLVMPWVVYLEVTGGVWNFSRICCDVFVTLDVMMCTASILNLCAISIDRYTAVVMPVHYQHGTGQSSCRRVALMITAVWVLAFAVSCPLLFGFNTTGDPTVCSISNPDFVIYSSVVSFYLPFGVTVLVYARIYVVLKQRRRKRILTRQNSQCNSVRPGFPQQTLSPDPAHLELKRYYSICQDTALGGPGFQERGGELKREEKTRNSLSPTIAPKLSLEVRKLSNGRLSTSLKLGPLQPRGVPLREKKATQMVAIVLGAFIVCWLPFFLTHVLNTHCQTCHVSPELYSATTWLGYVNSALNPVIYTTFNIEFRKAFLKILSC
# Sequence of D(1A) dopamine receptor (Q95136 whole entry): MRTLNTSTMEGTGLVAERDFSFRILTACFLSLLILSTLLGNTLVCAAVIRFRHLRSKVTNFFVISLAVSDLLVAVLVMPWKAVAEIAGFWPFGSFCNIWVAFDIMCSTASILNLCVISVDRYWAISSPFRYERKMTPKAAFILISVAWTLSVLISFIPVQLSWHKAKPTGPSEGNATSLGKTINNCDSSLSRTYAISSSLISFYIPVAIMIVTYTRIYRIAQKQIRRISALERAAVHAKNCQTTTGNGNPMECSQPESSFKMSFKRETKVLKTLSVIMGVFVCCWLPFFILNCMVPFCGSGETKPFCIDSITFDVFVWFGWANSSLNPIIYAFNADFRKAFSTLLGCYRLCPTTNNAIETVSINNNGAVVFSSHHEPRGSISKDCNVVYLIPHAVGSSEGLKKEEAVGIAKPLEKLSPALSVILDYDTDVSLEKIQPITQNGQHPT
Structure (SMILES),Ki [1] [µM],Ki [2] [µM],Ki [3] [µM],Ki [4] [µM],Ki [5] [µM],other results
COc1ccc(Br)cc1C1=NCC[C@@H](CN2CCN(c3ccccc3)CC2)N1,1.9,3.5,14,9.1,16,–
c1ccc(C2=NCC[C@H](CN3CCN(c4ccccc4)CC3)N2)cc1,–,–,–,–,–,Stimulation [6]: 83%
c1ccc(C2=N[C@@H](CN3CCN(c4ccccc4)CC3)CCN2)cc1,–,–,–,29,–,Ki [7]: 13 µM; Ki [8]: 0.0015 µM; Ki [9]: 32 µM; EC50 [10]: 0.05 µM; Ki [11]: 25 µM
c1ccc(C2=NC[C@H](N3CCN(c4ccccc4)CC3)CCN2)cc1,12,0.12,4.2,23,10,–
"c1ccc(C2=NCC(N3CCN(c4ccccc4)CC3)CCN2)cc1 (single isomer, unassigned)",3.3,4.4,14,23,19,–
O=C1C[C@@H](CN2CCN(c3ccccc3)CC2)N=C(c2ccccc2)N1,20,3.7,6.4,8.9,18,–
COc1ccc(Br)cc1C1=NCC[C@H](CN2CCN(c3ccccc3)CC2)N1,7.4,1.6,43,15,44,–
O=C1C[C@H](CN2CCN(c3ccccc3)CC2)N=C(c2ccccc2)N1,12,0.46,2.8,19,7.3,–
c1ccc(C2=NCC[C@@H](CN3CCN(c4ccccc4)CC3)N2)cc1,–,–,–,39,–,Ki [12]: 0.31 µM; Ki [13]: 13 µM; Ki [14]: 29 µM; Ki [15]: 30 µM
